# Laboratory results: ChEMBL document CHEMBL3792365, “Dioxol and dihydrodioxin analogs of 2- and 3-phenylacetonitriles as potent anti-cancer agents with nanomolar activity against a variety of human cancer cells” (2016)
# Assays:
# Type in all cases: functional
# [1] = Growth inhibition of human OVCAR4 cells at 10 uM after 48 hrs by sulforhodamine B assay; conditions: OVCAR-4, 48 h, values are per cent of control
# ACHN = experiment: Growth inhibition of human ACHN cells at 10 uM after 48 hrs by sulforhodamine B assay; conditions: values are per cent of control
# [2] = Growth inhibition of human HCT15 cells at 10 uM after 48 hrs by sulforhodamine B assay; conditions: HCT-15, 48 h, values are per cent of control
# M14 = experiment: Growth inhibition of human M14 cells at 10 uM after 48 hrs by sulforhodamine B assay; conditions: M14, 48 h, values are per cent of control
# MDA-MB-231 = experiment: Growth inhibition of human MDA-MB-231 cells at 10 uM after 48 hrs by sulforhodamine B assay; conditions: MDA-MB-231, 48 h, values are per cent of control
# [3] = Growth inhibition of human TK10 cells at 10 uM after 48 hrs by sulforhodamine B assay; conditions: TK-10, 48 h, values are per cent of control
# T47D = experiment: Growth inhibition of human T47D cells at 10 uM after 48 hrs by sulforhodamine B assay; conditions: values are per cent of control
# NCI-H522 = experiment: Growth inhibition of human NCI-H522 cells at 10 uM after 48 hrs by sulforhodamine B assay; conditions: NCI-H522, 48 h, values are per cent of control
# [4] = Growth inhibition of human HOP62 cells at 10 uM after 48 hrs by sulforhodamine B assay; conditions: HOP-62, 48 h, values are per cent of control
# [5] = Growth inhibition of human SKOV3 cells at 10 uM after 48 hrs by sulforhodamine B assay; conditions: SK-OV-3, 48 h, values are per cent of control
# MDA-MB-468 = experiment: Growth inhibition of human MDA-MB-468 cells at 10 uM after 48 hrs by sulforhodamine B assay; conditions: MDA-MB-468, 48 h, values are per cent of control
# KM12 = experiment: Growth inhibition of human KM12 cells at 10 uM after 48 hrs by sulforhodamine B assay; conditions: KM12, 48 h, values are per cent of control
# [6] = Growth inhibition of human SNB75 cells at 10 uM after 48 hrs by sulforhodamine B assay; conditions: SNB-75, 48 h, values are per cent of control
# [7] = Growth inhibition of human SNB19 cells at 10 uM after 48 hrs by sulforhodamine B assay; conditions: SNB-19, 48 h, values are per cent of control
# [8] = Growth inhibition of human NCI-ADR-RES cells at 10 uM after 48 hrs by sulforhodamine B assay; conditions: values are per cent of control
# [9] = Growth inhibition of human SF539 cells at 10 uM after 48 hrs by sulforhodamine B assay; conditions: SF-539, 48 h, values are per cent of control
# [10] = Growth inhibition of human HCT116 cells at 10 uM after 48 hrs by sulforhodamine B assay; conditions: HCT-116, 48 h, values are per cent of control
# SN12C = experiment: Growth inhibition of human SN12C cells at 10 uM after 48 hrs by sulforhodamine B assay; conditions: values are per cent of control
# SK-MEL-2 = experiment: Growth inhibition of human SK-MEL-2 cells at 10 uM after 48 hrs by sulforhodamine B assay; conditions: SK-MEL-2, 48 h, values are per cent of control
# [11] = Growth inhibition of human RXF393 cells at 10 uM after 48 hrs by sulforhodamine B assay; conditions: RXF 393, 48 h, values are per cent of control
# [12] = Growth inhibition of human Caki1 cells at 10 uM after 48 hrs by sulforhodamine B assay; conditions: CAKI-1, 48 h, values are per cent of control
# [13] = Growth inhibition of human DU145 cells at 10 uM after 48 hrs by sulforhodamine B assay; conditions: DU-145, 48 h, values are per cent of control
# NCI-H322M = experiment: Growth inhibition of human NCI-H322M cells at 10 uM after 48 hrs by sulforhodamine B assay; conditions: values are per cent of control
# A549 = experiment: Growth inhibition of human A549/ATCC cells at 10 uM after 48 hrs by sulforhodamine B assay; conditions: A549, 48 h, values are per cent of control
# NCI-H226 = experiment: Growth inhibition of human NCI-H226 cells at 10 uM after 48 hrs by sulforhodamine B assay; conditions: NCI-H226, 48 h, values are per cent of control
# SR = experiment: Growth inhibition of human SR cells at 10 uM after 48 hrs by sulforhodamine B assay; conditions: values are per cent of control
# [14] = Growth inhibition of human SW620 cells at 10 uM after 48 hrs by sulforhodamine B assay; conditions: SW-620, 48 h, values are per cent of control
# SK-MEL-28 = experiment: Growth inhibition of human SK-MEL-28 cells at 10 uM after 48 hrs by sulforhodamine B assay; conditions: SK-MEL-28, 48 h, values are per cent of control
# [15] = Growth inhibition of human UACC62 cells at 10 uM after 48 hrs by sulforhodamine B assay; conditions: UACC-62, 48 h, values are per cent of control
# [16] = Growth inhibition of human IGROV1 cells at 10 uM after 48 hrs by sulforhodamine B assay; conditions: IGROV-1, 48 h, values are per cent of control
# HT-29 = experiment: Growth inhibition of human HT-29 cells at 10 uM after 48 hrs by sulforhodamine B assay; conditions: HT-29, 48 h, values are per cent of control
# [17] = Growth inhibition of human SF268 cells at 10 uM after 48 hrs by sulforhodamine B assay; conditions: SF-268, 48 h, values are per cent of control
# [18] = Growth inhibition of human HCC2998 cells at 10 uM after 48 hrs by sulforhodamine B assay; conditions: HCC 2998, 48 h, values are per cent of control
# MDA-MB-435 = experiment: Growth inhibition of human MDA-MB-435 cells at 10 uM after 48 hrs by sulforhodamine B assay; conditions: MDA-MB-435, 48 h, values are per cent of control
# NCI-H460 = experiment: Growth inhibition of human NCI-H460 cells at 10 uM after 48 hrs by sulforhodamine B assay; conditions: NCI-H460, 48 h, values are per cent of control
# [19] = Growth inhibition of human COLO205 cells at 10 uM after 48 hrs by sulforhodamine B assay; conditions: COLO 205, 48 h, values are per cent of control
# 786-0 = experiment: Growth inhibition of human 786-0 cells at 10 uM after 48 hrs by sulforhodamine B assay; conditions: 786-0, 48 h, values are per cent of control
# K562 = experiment: Growth inhibition of human K562 cells at 10 uM after 48 hrs by sulforhodamine B assay; conditions: K562, 48 h, values are per cent of control
# [20] = Growth inhibition of human BT549 cells at 10 uM after 48 hrs by sulforhodamine B assay; conditions: BT-549, 48 h, values are per cent of control
# SK-MEL-5 = experiment: Growth inhibition of human SK-MEL-5 cells at 10 uM after 48 hrs by sulforhodamine B assay; conditions: SK-MEL-5, 48 h, values are per cent of control
Compound,"growth, % of control at 10 µM [1] [%]","growth, % of control at 10 µM (ACHN) [%]","growth, % of control at 10 µM [2] [%]","growth, % of control at 10 µM (M14) [%]","growth, % of control at 10 µM (MDA-MB-231) [%]","growth, % of control at 10 µM [3] [%]","growth, % of control at 10 µM (T47D) [%]","growth, % of control at 10 µM (NCI-H522) [%]","growth, % of control at 10 µM [4] [%]","growth, % of control at 10 µM [5] [%]","growth, % of control at 10 µM (MDA-MB-468) [%]","growth, % of control at 10 µM (KM12) [%]","growth, % of control at 10 µM [6] [%]","growth, % of control at 10 µM [7] [%]","growth, % of control at 10 µM [8] [%]","growth, % of control at 10 µM [9] [%]","growth, % of control at 10 µM [10] [%]","growth, % of control at 10 µM (SN12C) [%]","growth, % of control at 10 µM (SK-MEL-2) [%]","growth, % of control at 10 µM [11] [%]",further results
COc1ccc(/C(C#N)=C/c2ccc3c(c2)OCCO3)cc1OC,69.3,51.3,31.6,19.7,63,45.7,31,-30.1,36.9,20,-11.4,30.6,2.2,53.2,24.5,5.6,22.3,56.7,19.4,14.9,"growth, % of control at 10 µM [12]: 17.6%; growth, % of control at 10 µM [13]: 20.7%; growth, % of control at 10 µM (NCI-H322M): 34.5%; growth, % of control at 10 µM (A549): 40%; growth, % of control at 10 µM (NCI-H226): 71.1%; growth, % of control at 10 µM (SR): 1.8%; growth, % of control at 10 µM [14]: 15.5%; growth, % of control at 10 µM (SK-MEL-28): 61.7%; growth, % of control at 10 µM [15]: 43.7%; growth, % of control at 10 µM [16]: 49.5%; growth, % of control at 10 µM (HT-29): 6.6%; growth, % of control at 10 µM [17]: 53.2%; growth, % of control at 10 µM [18]: 60.1%; growth, % of control at 10 µM (MDA-MB-435): -17.6%; growth, % of control at 10 µM (NCI-H460): 12.4%; growth, % of control at 10 µM [19]: -1.3%; growth, % of control at 10 µM (786-0): 39.3%; growth, % of control at 10 µM (K562): 11.6%; growth, % of control at 10 µM [20]: 19.2%; growth, % of control at 10 µM (SK-MEL-5): 16.8%"
N#C/C(=C\c1c(Cl)cccc1Cl)c1ccc2c(c1)OCO2,79.9,103,92.6,89.7,95.8,81,83.8,65.4,90.6,97.9,84.9,95.2,51.5,106,103,97.9,89.7,95.9,90.6,96.1,"growth, % of control at 10 µM [12]: 83.2%; growth, % of control at 10 µM [13]: 99.3%; growth, % of control at 10 µM (NCI-H322M): 102%; growth, % of control at 10 µM (A549): 79.9%; growth, % of control at 10 µM (NCI-H226): 111%; growth, % of control at 10 µM (SR): 77%; growth, % of control at 10 µM [14]: 99.9%; growth, % of control at 10 µM (SK-MEL-28): 104%; growth, % of control at 10 µM [15]: 86.4%; growth, % of control at 10 µM [16]: 85.6%; growth, % of control at 10 µM (HT-29): 93.7%; growth, % of control at 10 µM [17]: 102%; growth, % of control at 10 µM [18]: 89.9%; growth, % of control at 10 µM (MDA-MB-435): 63.5%; growth, % of control at 10 µM (NCI-H460): 102%; growth, % of control at 10 µM [19]: 99.6%; growth, % of control at 10 µM (786-0): 95.6%; growth, % of control at 10 µM (K562): 77.5%; growth, % of control at 10 µM [20]: 100%; growth, % of control at 10 µM (SK-MEL-5): 93.5%"
COc1cc(/C=C(\C#N)c2ccc3c(c2)OCO3)cc(OC)c1,82.9,108,102,99.5,92.5,95.6,75.6,87.9,92.3,101,98.7,94.6,68.9,101,99.7,104,96.3,95.3,94.4,106,"growth, % of control at 10 µM [12]: 96.5%; growth, % of control at 10 µM [13]: 94.4%; growth, % of control at 10 µM (NCI-H322M): 89.5%; growth, % of control at 10 µM (A549): 84.6%; growth, % of control at 10 µM (NCI-H226): 99.8%; growth, % of control at 10 µM (SR): 82%; growth, % of control at 10 µM [14]: 102%; growth, % of control at 10 µM (SK-MEL-28): 106%; growth, % of control at 10 µM [15]: 86.4%; growth, % of control at 10 µM [16]: 87.1%; growth, % of control at 10 µM (HT-29): 92.4%; growth, % of control at 10 µM [17]: 95.5%; growth, % of control at 10 µM [18]: 102%; growth, % of control at 10 µM (MDA-MB-435): 100%; growth, % of control at 10 µM (NCI-H460): 102%; growth, % of control at 10 µM [19]: 97.7%; growth, % of control at 10 µM (786-0): 94.5%; growth, % of control at 10 µM (K562): 98.7%; growth, % of control at 10 µM [20]: 86.4%; growth, % of control at 10 µM (SK-MEL-5): 97.3%"
